Experiment [1] deals with SARS-CoV-2 Omicron variant. The experiment can be described thus: microbe, parasite or virus in culture. Format: cell-based. The note with it: Severe acute respiratory syndrome coronavirus 2; Caco-2 cells, dsRNA immunofluorescence; read-out: EC50 Omikron.
For experiment [2], the system named is SARS-CoV-2 Delta variant. The experiment can be described thus: microbe, parasite or virus in culture. The settings on record: Severe acute respiratory syndrome coronavirus 2; Caco-2 cells, dsRNA immunofluorescence. Format: cell-based.

SMILES strings stand for the structures. A value given as a limit tells only on which side of the number the result lay.

Broadly, the EC50 is the concentration at which the effect is half-maximal.

Regarding `[2H]C([2H])([2H])Oc1cccc(-c2cc(F)c(NC(=O)c3ccsc3C(=O)NOC)c(F)c2)c1` [Example 9, N3-(3,5-Difluoro-3′-(methoxy-d3)-[1,1′-biphenyl]-4-yl)-N2-methoxythiophene-2,3-di-carboxamide], the EC50 in experiment [1] and in experiment [2] was below 3 nM each time.

The record behind these values is patent US20250066290A1, “DHODH INHIBITORS CONTAINING A CARBOXYLIC ACID BIOISOSTERE” (IMMUNIC AG, priority 2021, published 2025).
